Here are results for five compounds from publication PMC11121064 (International Journal of Molecular Sciences, 2024).

For orientation: IC50 means the concentration needed to halve the response being measured. A high value points to a need for much substance.

The structures appear in SMILES notation.

For data set [1], the system named is melanoma A375 tumor cell line. Kind of data set: MTT reduction assay, A375 melanoma cells. The data set is classed as cell-based, human. Conditions: for effect on A375 cell viability: 72 h of exposure; for IC50: MTT, 72 h. As to the method: (§1) The cytotoxic activity was measured against the melanoma A375 tumor cell line (ECACC) and the human BJ fibroblast cell line (ATCC) using an MTT reduction assay. The selectivity index (SI) was calculated using the following formula: SI = IC50 (BJ)/ IC50 (A375).
The A375 cell line was purchased from the European Collection of Authenticated Cell Cultures (ECACC, Salisbury, UK) and the BJ human fibroblast cell line from the American Type Culture Collection (ATCC, Manassas, VA, USA). All the cell lines were grown as a monolayer in standard conditions: 37 °C, 100% humidity, under an atmosphere of 5% CO2. […] The BJ cell line was grown in EMEM with EBSS, NEAA and sodium pyruvate with L-Glutamine supplemented, 10% fetal bovine serum and 50 IU/mL penicillin/streptomycin.
(§2) Next, the cells were seeded in 96-well plates at a density of 5000 cells per well and incubated overnight to reach the logarithmic growth phase. […] After 72 h, 10 µL of MTT solution (5 g/L) was added into each well and incubated for an additional four hours. Subsequently, the medium was removed, and 100 µL of dimethyl sulfoxide (DMSO) was added into each well. The absorbance was then measured at 570 nm using a SPECTROstar Nano microplate reader (BMG Biotech Inc., Cary, NC, USA)/Tecan Spark 10M. The mean value from three independent BJ and A375 cell cultures was taken to calculate the cell viability, expressed as a percentage of the control values, i.e., untreated cells assumed as 100%.
For orientation: Tetrazolium dyes change colour on reduction, which living cells bring about.

Data set [2] concerns human BJ fibroblast cell line. The data set can be described thus: MTT reduction assay, BJ fibroblasts. As to conditions: 72 h. Type of data set: cell-based. As to the method: as §1
The A375 cell line was purchased from the European Collection of Authenticated Cell Cultures (ECACC, Salisbury, UK) and the BJ human fibroblast cell line from the American Type Culture Collection (ATCC, Manassas, VA, USA). All the cell lines were grown as a monolayer in standard conditions: 37 °C, 100% humidity, under an atmosphere of 5% CO2. The A375 cells were cultured in Dulbecco’s Modified Eagle Medium supplemented with 15% fetal calf serum and 50 IU/mL penicillin/streptomycin. The BJ cell line was grown in EMEM with EBSS, NEAA and sodium pyruvate with L-Glutamine supplemented, 10% fetal bovine serum and 50 IU/mL penicillin/streptomycin.
as §2

In data set [3] the test system is extrinsic coagulation pathway. Kind of data set: Prothrombin time (PT) and INR in human citrated plasma. Conditions: up to 100 µmol/L; reference PT 9.7–14.6 s, INR 0.8–1.2. As for the experimental part:
The first stage assessed the changes in plasma hemostasis occurring under the influence of the five test compounds. Plasma was incubated with the tested compounds and ligands at six different concentrations ranging from 0.5 to 100 µmol/L. The plasma was obtained from five different volunteers. To evaluate the impact on the extrinsic coagulation pathway, the prothrombin time (PT) was determined in human citrated plasma, expressed in seconds and as the international normalized ratio (INR) (Figure 6 and Figure 7).
The plasma was used for the hemostasis tests.
The results are presented as means ± standard deviation (SD).

For data set [4], the system named is clot formation and fibrinolysis in human citrate plasma. The data set can be described thus: Clot formation and fibrinolysis test (CL-test). As to conditions: for CLAUC overall potential for clot formation and fibrinolysis / Fmax maximum clotting / Fvo initial plasma clotting velocity / Lmax maximum lysis / Lvo initial clot fibrinolysis velocity / Sc area under the curve of stable clot formation / Sf area under the fibrinolysis curve / Sr area under the clot formation curve / Tc clot stabilization time / Tf plasma clotting time / Tl fibrinolysis time / Tt thrombin time: mean, n = 3.
Experimental: Following this, the impact of the tested complex compounds and their ligands on the overall clot formation and fibrinolysis potential (CLAUC) and individual kinetic parameters was assessed using the CL-test. The analysis was performed using plasma from three different donors.
The blood samples used were residual materials from routine diagnostic studies, destined for disposal as medical waste. […] Platelet-poor plasma (PPP) and red blood cells were obtained using centrifugation at 3000× g for 10 min at room temperature using a Mikro 22R centrifuge (Hettich Zentrifugen, Tuttlingen, Germany). The plasma was used for the hemostasis tests. Before use, the centrifuged erythrocyte mass was washed three times with physiological saline solution to remove the plasma protein residues and other blood cells.
The influence of the compounds on the overall hemostasis potential was determined using the CL-test through continuous measurement of changes in optical transmittance, as described previously [53, 54]. The experiments were conducted using three-fold diluted human citrate plasma, t-PA and thrombin. […] The results are presented as means ± SD (n = 3). The curves were used to determine the kinetic parameters of clot formation, stabilization and fibrinolysis using dedicated software [51]. The following parameters of clot formation were determined: Tt—thrombin time (s), Fmax—maximum clotting (%T), Tf—plasma clotting time (s), Fvo—initial plasma clotting velocity (%T/min), Sr—area under the clot formation curve (%Txmin). The parameters of the clot stabilization phase comprised Tc—clot stabilization time (s) and Sc—area under the curve of stable clot formation (%Txmin). The parameters of fibrinolysis comprised Lmax—maximum lysis (%T), Tl—fibrinolysis time (s), Lvo—initial clot fibrinolysis velocity (%T/min) and Sf—area under the fibrinolysis curve (%Txmin). Additionally, the overall potential for clot formation and fibrinolysis, i.e., CLAUC (%Txmin), was also estimated.

For the compound `N.N.[Cl][Pt][Cl]` [Cisplatin, cisplatin], in data set [1], the “effect on A375 cell viability” value is listed as “dose-dependent cytotoxic effect” and 8.5 ± 0.3 µM corresponded to half-maximal inhibition (IC50). Also, 24 ± 0.8 µM corresponded to half-maximal inhibition in data set [2] (IC50).

`Cc1ncc([N+](=O)[O-])n1CCO.Cc1ncc([N+](=O)[O-])n1CCO.O=[N+]([O-])[O-].[Ag+]` [[(MTZ)2AgNO3]] showed an IC50 in data set [1] of 3 ± 0.3 µM. Moreover, half-maximal inhibition in data set [2] (IC50) required 46 ± 1.6 µM. In data set [3], the “prolongation of PT and INR beyond the reference range” value is on record as “do not cause pathological prolongation”. In data set [4] (0.5 µmol/L), the “CLAUC overall potential for clot formation and fibrinolysis” value (“CLAUC overall potential” for short) stood at 287.9 %*min; the Fmax maximum clotting is 64.4%; the “Fvo initial plasma clotting velocity” value is reported as 126.7 %/min; the Lmax maximum lysis worked out at 61.9%. In addition, in data set [4] (0.5 µmol/L), the “Lvo initial clot fibrinolysis velocity” value amounted to 20.9 %/min, the “Sc area under the curve of stable clot formation” value (“Sc area under the curve” for short) is reported as 118.4 %*min, the “Sf area under the fibrinolysis curve” value is on record as 125.5 %*min and the “Sr area under the clot formation curve” value came to 44.1 %*min. For the same compound, in data set [4] (0.5 µmol/L), the “Tc clot stabilization time” value turned out to be 114.3 s, the “Tf plasma clotting time” value was 61.9 s, the Tl fibrinolysis time turned out to be 158.7 s and the Tt thrombin time was found to be 21.3 s. In data set [4] (1.0 µmol/L), the “CLAUC overall potential” value worked out at 275.7 %*min; the Fmax maximum clotting is given as 62.2%; the “Fvo initial plasma clotting velocity” value was found to be 126.3 %/min; the Lmax maximum lysis is listed as 61.5%. In addition, in data set [4] (1.0 µmol/L), the “Lvo initial clot fibrinolysis velocity” value worked out at 19.5 %/min, the “Sc area under the curve” value came out at 125.5 %*min, the “Sf area under the fibrinolysis curve” value is 105.1 %*min and the “Sr area under the clot formation curve” value is 45.1 %*min. Also, in data set [4] (1.0 µmol/L), the “Tc clot stabilization time” value is on record as 124.7 s, the “Tf plasma clotting time” value amounted to 65.9 s, the Tl fibrinolysis time amounted to 175.0 s and the Tt thrombin time is listed as 21.6 s. Further, in data set [4] (5.0 µmol/L), the “CLAUC overall potential” value is 343.6 %*min; the Fmax maximum clotting is listed as 70.7%; the “Fvo initial plasma clotting velocity” value is given as 157.7 %/min; the Lmax maximum lysis turned out to be 70.5%. In data set [4] (5.0 µmol/L), the “Lvo initial clot fibrinolysis velocity” value was 21.9 %/min, the “Sc area under the curve” value is 169.8 %*min, the “Sf area under the fibrinolysis curve” value is 129.1 %*min and the “Sr area under the clot formation curve” value was 44.7 %*min. Further, in data set [4] (5.0 µmol/L), the “Tc clot stabilization time” value worked out at 146.7 s, the “Tf plasma clotting time” value is on record as 59.4 s, the Tl fibrinolysis time came to 199.0 s and the Tt thrombin time stood at 19.2 s. In data set [4] (10.0 µmol/L), the “CLAUC overall potential” value turned out to be 284.4 %*min; the Fmax maximum clotting came out at 61.4%; the “Fvo initial plasma clotting velocity” value is 121.6 %/min; the Lmax maximum lysis came to 60.2%. For the same compound, in data set [4] (10.0 µmol/L), the “Lvo initial clot fibrinolysis velocity” value came to 19.5 %/min, the “Sc area under the curve” value was found to be 126.7 %*min, the “Sf area under the fibrinolysis curve” value is 117.2 %*min and the “Sr area under the clot formation curve” value was 40.5 %*min. In data set [4] (10.0 µmol/L), the “Tc clot stabilization time” value worked out at 126.7 s, the “Tf plasma clotting time” value was 62.3 s, the Tl fibrinolysis time came to 180.3 s and the Tt thrombin time is on record as 23.3 s. Besides, in data set [4] (50.0 µmol/L), the “CLAUC overall potential” value is given as 280.7 %*min; the Fmax maximum clotting stood at 63.8%; the “Fvo initial plasma clotting velocity” value was found to be 129.0 %/min; the Lmax maximum lysis is listed as 61.8%. In data set [4] (50.0 µmol/L), the “Lvo initial clot fibrinolysis velocity” value is recorded as 22.0 %/min, the “Sc area under the curve” value is reported as 123.25 %*min, the “Sf area under the fibrinolysis curve” value is on record as 118.6 %*min and the “Sr area under the clot formation curve” value amounted to 38.9 %*min. In data set [4] (50.0 µmol/L), the “Tc clot stabilization time” value was determined as 119.3 s, the “Tf plasma clotting time” value stood at 56.9 s, the Tl fibrinolysis time was 164.7 s and the Tt thrombin time was 22.5 s. Also, in data set [4] (100.0 µmol/L), the “CLAUC overall potential” value is reported as 318.6 %*min; the Fmax maximum clotting amounted to 68.6%; the “Fvo initial plasma clotting velocity” value was found to be 124.9 %/min; the Lmax maximum lysis came to 67.2%. Moreover, in data set [4] (100.0 µmol/L), the “Lvo initial clot fibrinolysis velocity” value amounted to 29.6 %/min, the “Sc area under the curve” value was determined as 146.3 %*min, the “Sf area under the fibrinolysis curve” value is recorded as 131.8 %*min and the “Sr area under the clot formation curve” value is recorded as 40.4 %*min. For the same compound, in data set [4] (100.0 µmol/L), the “Tc clot stabilization time” value is 131.3 s, the “Tf plasma clotting time” value came to 59.2 s, the Tl fibrinolysis time is on record as 188.7 s and the Tt thrombin time was found to be 22.4 s.

Regarding `Clc1ccc(COC(Cn2ccnc2)c2ccc(Cl)cc2Cl)c(Cl)c1` (stereo not drawn) [MCZ, miconazole], the “effect on A375 cell viability” value in data set [1] was “dose-dependent reduction”.

Regarding `Cc1ncc([N+](=O)[O-])n1CCO` [MTZ, metronidazole], the IC50 was above 100 µM in data set [1] (Homo sapiens, A-375) and above 100 µM in data set [2] (Homo sapiens, Fibroblast). Further, the “effect on CLAUC and kinetic parameters of clot formation and lysis” value in data set [4] (entire concentration range 0.5–100 µmol/L) is recorded as “no significant differences”.

On to `Clc1ccc(COC(Cn2ccnc2)c2ccc(Cl)cc2Cl)c(Cl)c1.Clc1ccc(COC(Cn2ccnc2)c2ccc(Cl)cc2Cl)c(Cl)c1.[Ag+].[F][Sb-]([F])([F])([F])([F])[F]` (stereo not drawn) [[Ag(MCZ)2SbF6]], for which the IC50 in data set [1] stood at 18.5 ± 2.4 µM; in data set [2] it was 16 ± 0.9 µM.
